Results published in ChEMBL document CHEMBL1201862, “PubChem BioAssay data set” (2004).
Counter-ions that a name gives are not always drawn. The source made the active and inactive calls.

Legend:
[1] = Luminescence Cell-Based Dose Confirmation HTS to Identify Activators of 5'UTR Stem-Loop Driven Alpha-Synuclein mRNA Translation in H4 Neuroglioblastoma Cells. [Related pubchem assays: 1829 (Project Summary), 1814 (Primary HTS)]; assay type: functional
[2] = Luminescence Cell-Based Dose Response HTS to Identify Activators of Luciferase Translation or Activity in H4 […] Cells. [Related pubchem assays: 1829 (Project Summary), 1814 (Primary HTS)]; assay type: functional
H4 = assay: Luminescence Cell-Based Dose Response HTS to Identify Activators of 5'UTR Stem-Loop Driven Prion Protein mRNA Translation in H4 Neuroglioblastoma Cells. [Related pubchem assays: 1829 (Project Summary), 1814 (Primary HTS)]; assay type: functional; conditions: Homo sapiens
[3] = Luminescence Cell-Based Dose Retest to Confirm Inhibitors of Cancer Stem Cells. [Related pubchem assays (depositor defined):AID2717, AID2721]; assay type: functional; conditions: Homo sapiens
Protein RecA = molecular target: T1, Protein RecA (Mycobacterium tuberculosis, UniProt P9WHJ3); assay: Fluorescence Cell-Free Homogeneous Dose Retest to Identify Inhibitors of RecA-Intein Splicing Activity. [Related pubchem assays (depositor defined):AID2097, AID2223, AID489010, AID492950]; assay type: functional
T1 sequence (P9WHJ3 whole entry): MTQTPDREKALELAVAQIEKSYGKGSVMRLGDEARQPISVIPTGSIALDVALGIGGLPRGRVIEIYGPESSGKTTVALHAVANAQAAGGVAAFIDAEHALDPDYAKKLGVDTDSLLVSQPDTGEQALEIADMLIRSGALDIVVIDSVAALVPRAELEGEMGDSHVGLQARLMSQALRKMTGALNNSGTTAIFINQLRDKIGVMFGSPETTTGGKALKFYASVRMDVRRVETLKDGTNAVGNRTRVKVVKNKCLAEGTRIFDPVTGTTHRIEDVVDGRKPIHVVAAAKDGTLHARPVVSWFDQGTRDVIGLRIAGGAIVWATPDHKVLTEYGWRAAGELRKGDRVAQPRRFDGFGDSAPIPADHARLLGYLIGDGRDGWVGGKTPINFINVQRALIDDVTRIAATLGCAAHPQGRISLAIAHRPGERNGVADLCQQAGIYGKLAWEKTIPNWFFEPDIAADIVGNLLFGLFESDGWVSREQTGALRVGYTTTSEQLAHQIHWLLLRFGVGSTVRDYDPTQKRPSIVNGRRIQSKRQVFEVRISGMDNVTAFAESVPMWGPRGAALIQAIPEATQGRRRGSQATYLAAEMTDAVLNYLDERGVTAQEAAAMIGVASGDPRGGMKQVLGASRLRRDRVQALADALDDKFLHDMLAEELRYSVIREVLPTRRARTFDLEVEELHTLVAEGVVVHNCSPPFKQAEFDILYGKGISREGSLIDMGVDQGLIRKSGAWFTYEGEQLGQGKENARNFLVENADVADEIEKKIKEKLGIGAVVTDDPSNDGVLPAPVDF

INS1 = assay: INS-1E survival protection against cytokine death – cell-based, luminescence, retest, dose response (AID 449756); assay type: functional; conditions: Rattus norvegicus;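 further: cell death triggered by IL-1 beta plus TNF-alpha plus IFN-gamma mixture; protective hits raise ATP signal compared with cytokine alone wells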
[4] = A549 cell cytotoxicity, dose response, cytotoxicity control, plate reader, cherry-pick, antagonist series (AID 743412); assay type: functional, cell-based
[5] = toxicity toward HepG2 liver cells – cell-based, plate reader, cherry-pick, antagonist series, cytotoxicity control, dose response (AID 743416); assay type: functional
[6] = viability loss in HEK293 cells – cell-based, plate reader, cherry-picked samples, cytotoxicity control, dose response (AID 743446); assay type: functional
[7] = viability of uninfected HEp-2 cells – cell-based, HTS, cytotoxicity control for RSV inhibitor project, dose response (AID 2410); assay type: functional; conditions: human respiratory syncytial virus
Genome polyprotein = Genome polyprotein (dengue virus type 2, UniProt P29990); assay: flavivirus cap methylation enzyme inhibition – biochemical, confirmation dose response, primary screen (AID 588689); assay type: functional
Caspase-6 = Caspase-6 (Homo sapiens, UniProt P55212); assay: inhibition of CASP6 peptide cleavage – biochemical, VEID-R110 fluorescence, cherry-pick, dose response (AID 720632)
[8] = molecular target: E3 ubiquitin-protein ligase Mdm2 (Homo sapiens, UniProt Q00987); assay: MDM2-luc reporter signal enhancers, multi-concentration potency testing, MDM2 ubiquitin-protein ligase inhibitor program, whole-cell format, luminescence detection, 384-well microplate (AID 1394); assay type: functional;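 further: MDM2 E3 inhibitors raise luminescence so EC50 is for signal enhancement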
[9] = HIV-1 Vif–A3G interaction blockers – biochemical, TR-FRET, GST-Vif 1-94, biotin-A3G peptide, dose response retest, primary screen (AID 1117319); assay type: functional;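 further: TR-FRET signal of purified GST-Vif binding a biotinylated A3G peptide; inhibitors lower the FRET signal by blocking Vif and A3G binding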
[10] = viability of PTEN-deleted HCT116 cells – cell-based, HCT116 PTEN knockout, dose response (AID 1047); assay type: functional;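 further: HCT116 colon tumor cells with PTEN knocked out; cells exposed to compound for 60 hours before readout; potency for loss of cell viability measured by luminescence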
[11] = viability of HCT116 lacking mutant beta-catenin – cell-based, human colon tumor, dose response (AID 1045); assay type: functional;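 further: HCT116 colon tumor cells with beta catenin knocked out; cells exposed to compound for 60 hours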
[12] = molecular target: T2, Heat shock factor protein 1 (Mus musculus, UniProt P38532); assay: enhancement of HSF1-driven luciferase signal – cell-based, NIH3T3, luminescence, dose retest, confirmation (AID 435004); assay type: functional;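 further: stress induced by proteasome inhibitor MG132 added 30 min after compound; luciferase reporter driven by HSF1 response element in NIH3T3 cells; actives raise luminescence as potentiators of the MG132 stress response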
T2 sequence (P38532 whole entry): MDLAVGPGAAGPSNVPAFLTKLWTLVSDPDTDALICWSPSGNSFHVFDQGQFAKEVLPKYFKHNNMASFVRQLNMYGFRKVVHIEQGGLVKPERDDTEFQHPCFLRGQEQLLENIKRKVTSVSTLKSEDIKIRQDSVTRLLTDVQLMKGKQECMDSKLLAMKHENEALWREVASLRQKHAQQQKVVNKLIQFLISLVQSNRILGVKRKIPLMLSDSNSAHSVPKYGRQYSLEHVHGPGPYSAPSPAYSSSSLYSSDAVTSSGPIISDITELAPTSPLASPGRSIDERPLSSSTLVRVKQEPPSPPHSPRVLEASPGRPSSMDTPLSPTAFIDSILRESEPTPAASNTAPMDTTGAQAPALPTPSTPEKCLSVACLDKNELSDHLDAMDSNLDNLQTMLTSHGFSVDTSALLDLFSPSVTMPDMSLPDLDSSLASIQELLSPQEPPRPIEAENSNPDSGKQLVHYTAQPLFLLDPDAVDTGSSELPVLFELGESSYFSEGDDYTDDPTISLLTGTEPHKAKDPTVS

Vero [13] = assay: cells; assay type: functional, cell-based; conditions: Chlorocebus sabaeus
Vero [14] = assay: cells; assay type: functional; conditions: Chlorocebus sabaeus
[15] = potency of ADAM10 substrate cleavage blockers – biochemical, QFRET, dose response (AID 743254);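 further: ADAM10 enzyme with the DM2 quenched FRET peptide as substrate; EDANS fluorescence gain as the protease cuts the substrate; inhibitor potency against ADAM10 proteolytic activity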
[16] = molecular target: Disintegrin and metalloproteinase domain-containing protein 17 (Homo sapiens, UniProt P78536); assay: inhibition of ADAM17 substrate cleavage – biochemical, quenched FRET substrate, counter-screen for ADAM10 exosite inhibitor project, dose response (AID 743253)
[17] = molecular target: Mitogen-activated protein kinase 10 (Homo sapiens, UniProt P53779); assay: Dose response biochemical screening assay for inhibitors of c-Jun N-Terminal Kinase 3 (JNK3). [Related pubchem assays: 746 ]
[18] = Trypanosoma cruzi growth suppression in host cells – NIH3T3 host cells, beta-gal luminescence, confirmation (AID 2044); assay type: functional, cell-based;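 further: intracellular parasites grown in NIH/3T3 mouse fibroblasts as host cells; luminescent beta-galactosidase reporter signal from transgenic T. cruzi replicating inside host cells; inhibitors lower the luminescence signal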
[19] = NIH3T3 cell viability loss – ATP luminescence, mouse fibroblasts, counter-screen, dose response (AID 2010); assay type: functional, cell-based;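 further: cells exposed to compound for about 90 hours before reading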
Paired box protein Pax-8 = Paired box protein Pax-8 (Homo sapiens, UniProt Q06710); assay: PAX8 transcriptional activity inhibition in RMG-I – RMG-I cells, luciferase, cherry-pick, dose response (AID 687027); assay type: functional, cell-based;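 further: luciferase reporter driven by Pax8 target thyroperoxidase promoter measured by SteadyGlo luminescence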
[20] = A2780 cell killing – plate reader, dry powder samples, cytotoxicity control, dose response (AID 743046); assay type: functional, cell-based
[21] = inhibitors of non-replicating M. tuberculosis, dose response, luciferase, dry powder (AID 651619); assay type: functional; conditions: Mycobacterium tuberculosis
[22] = inhibitors of non-replicating M. tuberculosis, dose response, luciferase, dry powder (AID 651620); assay type: functional; conditions: Mycobacterium tuberculosis
[23] = YAP1 overexpression rescue of CTGF inhibition – DLD1 cells, RT-qPCR, cherry-pick, mechanism study for YAP1 pathway inhibitor project, dose response (AID 1053127); assay type: functional, cell-based; conditions: DLD-1
[24] = cytotoxicity in MITF-independent A375 cells – cell-based, CellTiter-Glo luminescence, dry powder, set 4, counter-screen for MITF inhibitor project, dose response (AID 624364); assay type: functional; conditions: A-375;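 further: A375 melanoma cells are MITF independent so this is a counter screen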
[25] = viability loss in MITF-independent A375 cells – cell-based, CellTiter-Glo luminescence, dry powder, set 2, counter-screen for MITF inhibitor project, dose response (AID 624489); assay type: functional; conditions: A-375;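 further: actives are compounds lowering A375 viability meaning general cytotoxicity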
[26] = CellTiter-Glo luminescence survival assay, SW480 colon tumor line, concentration-response curve, half-maximal inhibitory concentration (AID 1117338); assay type: functional
[27] = RKO cell viability reduction, dose response, CellTiter-Glo luminescence (AID 1117322); assay type: functional
[28] = cytotoxicity toward HCT116 cells – cell-based, CellTiter-Glo luminescence, IC50, dose response (AID 1117332); assay type: functional; conditions: HCT-116
[29] = SNU-C1 cell viability reduction, dose response, CellTiter-Glo luminescence (AID 1117323); assay type: functional, cell-based
[30] = cytotoxicity toward Colo320 cells – cell-based, CellTiter-Glo luminescence, IC50, dose response (AID 1117334); assay type: functional; conditions: COLO 320
[31] = cytotoxicity toward HT-29 cells – cell-based, CellTiter-Glo luminescence, IC50, dose response (AID 1117330); assay type: functional
[32] = Reduced DLD-1 viability, concentration-response, CellTiter-Glo luminescence (AID 1117352); assay type: functional
[33] = rise of 2N DNA cells, HeLa – IC50, dose response (AID 1117349); assay type: functional, cell-based
[34] = rise of 4N DNA cells, HeLa – IC50, dose response (AID 1117351); assay type: functional, cell-based
[35] = HCT116 cell viability decrease, GSK3B pretreatment – CellTiter-Glo, IC50, dose response (AID 1117339); assay type: functional; conditions: HCT-116

Sequence of Caspase-6 (P55212 24-179 limits assumed): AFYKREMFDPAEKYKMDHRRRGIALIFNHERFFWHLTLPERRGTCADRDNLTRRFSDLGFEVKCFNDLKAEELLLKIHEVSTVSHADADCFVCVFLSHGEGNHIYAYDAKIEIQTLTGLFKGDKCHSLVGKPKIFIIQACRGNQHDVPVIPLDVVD
Sequence of Caspase-6 (P55212 194-293 limits assumed): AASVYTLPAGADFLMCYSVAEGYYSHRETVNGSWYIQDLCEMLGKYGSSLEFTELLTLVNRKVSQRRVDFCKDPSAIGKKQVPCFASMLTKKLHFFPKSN
Sequence of Mitogen-activated protein kinase 10 (P53779 whole entry): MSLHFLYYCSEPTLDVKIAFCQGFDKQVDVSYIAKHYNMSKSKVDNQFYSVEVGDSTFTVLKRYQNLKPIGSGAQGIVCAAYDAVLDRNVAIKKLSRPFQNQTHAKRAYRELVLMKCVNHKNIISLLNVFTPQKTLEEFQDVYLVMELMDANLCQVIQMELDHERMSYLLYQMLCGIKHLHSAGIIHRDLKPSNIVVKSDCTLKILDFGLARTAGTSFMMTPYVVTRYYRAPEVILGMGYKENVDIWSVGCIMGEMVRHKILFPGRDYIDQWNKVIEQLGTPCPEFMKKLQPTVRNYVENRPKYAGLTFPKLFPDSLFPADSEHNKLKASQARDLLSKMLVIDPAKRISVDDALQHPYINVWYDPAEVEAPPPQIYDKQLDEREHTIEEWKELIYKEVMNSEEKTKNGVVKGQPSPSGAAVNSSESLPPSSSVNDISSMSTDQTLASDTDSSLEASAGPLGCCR
Sequence of Paired box protein Pax-8 (Q06710 whole entry): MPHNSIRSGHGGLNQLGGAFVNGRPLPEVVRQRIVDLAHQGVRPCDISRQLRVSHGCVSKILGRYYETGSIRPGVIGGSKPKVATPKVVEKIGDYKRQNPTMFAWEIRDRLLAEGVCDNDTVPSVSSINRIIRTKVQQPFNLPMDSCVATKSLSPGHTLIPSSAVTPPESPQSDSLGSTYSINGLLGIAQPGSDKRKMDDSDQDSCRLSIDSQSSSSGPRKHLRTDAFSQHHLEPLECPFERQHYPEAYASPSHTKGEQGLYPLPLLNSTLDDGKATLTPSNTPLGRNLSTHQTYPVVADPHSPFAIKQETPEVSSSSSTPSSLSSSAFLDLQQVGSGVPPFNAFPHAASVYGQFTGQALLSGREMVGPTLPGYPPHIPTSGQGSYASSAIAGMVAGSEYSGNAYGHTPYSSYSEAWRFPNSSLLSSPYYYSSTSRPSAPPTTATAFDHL
Sequence of Genome polyprotein (P29990 2492-3391 limits assumed): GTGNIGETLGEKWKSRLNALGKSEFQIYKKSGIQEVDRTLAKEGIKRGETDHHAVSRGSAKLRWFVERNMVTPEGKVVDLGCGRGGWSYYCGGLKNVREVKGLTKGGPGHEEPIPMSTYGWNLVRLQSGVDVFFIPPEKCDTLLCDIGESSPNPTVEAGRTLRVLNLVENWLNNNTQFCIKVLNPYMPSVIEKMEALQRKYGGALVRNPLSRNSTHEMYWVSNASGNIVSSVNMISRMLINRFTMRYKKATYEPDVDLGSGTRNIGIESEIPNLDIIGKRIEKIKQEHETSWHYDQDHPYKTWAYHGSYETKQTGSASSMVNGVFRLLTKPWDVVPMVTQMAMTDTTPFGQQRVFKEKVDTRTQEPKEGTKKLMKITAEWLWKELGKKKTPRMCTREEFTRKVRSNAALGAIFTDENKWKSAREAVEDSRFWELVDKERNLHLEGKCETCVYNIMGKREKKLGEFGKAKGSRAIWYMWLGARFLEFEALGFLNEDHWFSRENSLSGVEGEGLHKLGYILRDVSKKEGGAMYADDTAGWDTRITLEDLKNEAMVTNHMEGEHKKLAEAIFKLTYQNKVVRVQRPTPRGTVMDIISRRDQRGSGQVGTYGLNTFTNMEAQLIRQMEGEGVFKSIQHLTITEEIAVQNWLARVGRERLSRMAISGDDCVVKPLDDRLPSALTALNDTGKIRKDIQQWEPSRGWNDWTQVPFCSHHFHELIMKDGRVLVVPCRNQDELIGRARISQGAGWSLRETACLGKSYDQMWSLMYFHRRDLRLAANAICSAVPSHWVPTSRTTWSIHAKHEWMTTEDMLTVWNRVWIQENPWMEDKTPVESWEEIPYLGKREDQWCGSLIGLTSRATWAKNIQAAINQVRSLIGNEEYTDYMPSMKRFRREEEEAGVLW
Sequence of Disintegrin and metalloproteinase domain-containing protein 17 (P78536 whole entry, the tested form may be a part): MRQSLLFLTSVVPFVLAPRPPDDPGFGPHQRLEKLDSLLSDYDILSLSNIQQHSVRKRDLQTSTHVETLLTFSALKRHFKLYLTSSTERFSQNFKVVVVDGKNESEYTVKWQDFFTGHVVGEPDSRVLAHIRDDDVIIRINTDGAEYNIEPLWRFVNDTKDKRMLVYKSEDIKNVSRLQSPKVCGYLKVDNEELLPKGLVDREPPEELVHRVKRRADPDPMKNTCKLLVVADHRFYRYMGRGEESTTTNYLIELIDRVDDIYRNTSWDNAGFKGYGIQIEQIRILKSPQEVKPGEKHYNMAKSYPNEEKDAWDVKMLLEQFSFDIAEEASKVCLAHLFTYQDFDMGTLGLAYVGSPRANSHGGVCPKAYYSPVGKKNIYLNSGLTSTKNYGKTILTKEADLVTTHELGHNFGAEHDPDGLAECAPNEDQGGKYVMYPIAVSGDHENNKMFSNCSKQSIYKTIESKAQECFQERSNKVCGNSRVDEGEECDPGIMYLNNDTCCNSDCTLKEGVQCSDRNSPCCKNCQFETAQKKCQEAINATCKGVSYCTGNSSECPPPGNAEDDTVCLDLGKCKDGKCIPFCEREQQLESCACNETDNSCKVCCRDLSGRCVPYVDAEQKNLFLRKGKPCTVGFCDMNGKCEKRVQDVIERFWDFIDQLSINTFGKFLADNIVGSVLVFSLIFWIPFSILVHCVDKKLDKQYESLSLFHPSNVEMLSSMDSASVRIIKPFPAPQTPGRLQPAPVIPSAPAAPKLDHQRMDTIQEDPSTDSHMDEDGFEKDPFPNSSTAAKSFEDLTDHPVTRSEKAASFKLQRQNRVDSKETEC
Sequence of E3 ubiquitin-protein ligase Mdm2 (Q00987 whole entry): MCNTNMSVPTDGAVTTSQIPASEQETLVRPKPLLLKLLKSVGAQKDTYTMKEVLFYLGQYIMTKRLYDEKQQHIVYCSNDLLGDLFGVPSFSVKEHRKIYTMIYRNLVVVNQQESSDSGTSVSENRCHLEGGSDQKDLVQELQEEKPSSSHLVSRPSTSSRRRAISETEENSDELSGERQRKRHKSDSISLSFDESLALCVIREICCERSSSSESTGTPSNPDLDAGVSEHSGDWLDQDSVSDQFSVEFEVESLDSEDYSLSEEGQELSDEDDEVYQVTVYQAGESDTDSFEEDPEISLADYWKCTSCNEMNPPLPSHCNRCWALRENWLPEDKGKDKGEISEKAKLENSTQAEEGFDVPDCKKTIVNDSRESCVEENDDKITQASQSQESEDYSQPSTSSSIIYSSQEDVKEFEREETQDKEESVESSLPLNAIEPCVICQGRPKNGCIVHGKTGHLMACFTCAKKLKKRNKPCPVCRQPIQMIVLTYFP

COc1cc(NC2CCCCC2O)c2nc(-c3ccc(Cl)cc3)ccc2c1 (configuration not stated)
EC50 [1]: 9.15 µM (active)
EC50 [2]: 12.9 µM (active)
EC50 (H4): > 60 µM (not active)
AC50 [3]: 2.07 µM (active)
EC50 (Protein RecA): 0.0728 µM (active)
AC50 (INS1): 3.57 µM (active)
AC50 [4]: 20.3 µM (active)
AC50 [5]: 26.3 µM (active)
AC50 [6]: > 52 µM (inactive)

CCCCC(NC(=O)Cc1c(C)c2cc3c(-c4ccccc4)coc3c(C)c2oc1=O)C(=O)O (configuration not stated)
CC50 [7]: > 50 µM (active)
IC50 (Genome polyprotein): 51 µM (active)
AC50 (Caspase-6): 22 µM (active)
IC50 (cells): 45.9 µM (active)

COc1cc2c(cc1OC)CN(C(=O)c1ccco1)CC2
EC50 [8]: 11.1 µM (not active)

O=C(c1cc2ccccc2oc1=O)N1CCN(c2ccc(N3CCOCC3)nn2)CC1
IC50 [9]: > 100 µM (active)

CCOC(=O)/C(=C\c1ccccc1)NC(=O)c1ccccc1
IC50 [9]: > 100 µM (active)

Cc1ccc(N(CC(=O)NCCc2ccc(F)cc2)S(=O)(=O)c2ccc(Cl)c([N+](=O)[O-])c2)c(C)c1
EC50 [10]: 14 µM (active)
EC50 [11]: 8.87 µM (active)
EC50 [12]: 17.1 µM (active)
IC50 (Vero [13]): > 25 µM (active)
CC50 (Vero [14]): 18.4 µM (active)
IC50 [15]: > 69.5 µM (inactive)
IC50 [16]: > 69.5 µM (inactive)

CC(=O)c1c(C)[nH]c(C(=O)OCn2nnc3ccccc3c2=O)c1C
IC50 [17]: 34.2 µM (not active)

O=C(Nc1nccs1)c1ccc(Br)o1
IC50 [17]: > 31 µM (not active)

O=C(N/N=C/c1ccc([N+](=O)[O-])o1)C1CC1
EC50 [18]: 0.36 µM (active)
EC50 [19]: > 60 µM (not active)
AC50 (Caspase-6): 10 µM (active)

CC(C)CC#Cc1ccc([C@@H]2[C@@H](CO)N3CCCCN(S(=O)(=O)c4ccc(F)cc4)C[C@H]23)cc1
AC50 (Paired box protein Pax-8): 12.4 µM (active)
AC50 [20]: 52.3 µM (active)

Brc1cccc(-c2nnc(SCc3ccccn3)o2)c1
IC90 [21]: 4 µM (active)
IC90 [22]: 4 µM (active)

O=C(Cc1ccncc1)N1CCCCN2[C@H](CO)[C@@H](c3ccc(C#Cc4ccccc4F)cc3)[C@H]2C1
AC50 [23]: 15.1 µM (active)

CC(C)(C)[S@@+]([O-])N1Cc2cc(C(=O)NCC(F)(F)F)nc(-c3cccc(-c4cccc(F)c4)c3)c2[C@H]1CCO
AC50 [23]: > 26 µM (inactive)

COc1ccc(C2=C(N)C(=O)c3ccccc3C2=O)cc1
AC50 [24]: > 70 µM (inactive)
AC50 [25]: > 70 µM (inactive)

O=c1sc2ccccc2c(O)c1C1CC(c2ccc(-c3ccc(Br)cc3)cc2)Cc2ccccc21 (configuration not stated)
IC50 [26]: 0.187 µM (active)
IC50 [27]: 0.538 µM (active)
IC50 [28]: 0.485 µM (active)
IC50 [29]: 0.252 µM (active)
IC50 [30]: 0.735 µM (active)
IC50 [31]: 0.436 µM (active)
IC50 [32]: 0.239 µM (active)

COc1ccc(C2=C(NC(C)=O)C(=O)c3ccccc3C2=O)cc1
AC50 [24]: 13.4 µM (active)
AC50 [25]: 8.33 µM (active)

COc1cc(NC(C)CCCN)c2ncccc2c1 (configuration not stated) [PRIMAQUINE]
IC50 [33]: > 10 µM (inactive)
IC50 [26]: > 20 µM (inactive)
IC50 [27]: > 20 µM (inactive)
IC50 [28]: 1.88 µM (active)
IC50 [29]: > 20 µM (inactive)
IC50 [30]: > 20 µM (inactive)
IC50 [34]: > 10 µM (inactive)
IC50 [32]: > 20 µM (inactive)
IC50 [35]: > 20 µM (inactive)

O=C(CCCN1CCC(O)(c2cccc(C(F)(F)F)c2)CC1)c1ccc(F)cc1 [TRIFLUPERIDOL HYDROCHLORIDE]
IC50 [26]: > 20 µM (inactive)
IC50 [27]: > 20 µM (inactive)
IC50 [28]: > 20 µM (inactive)
IC50 [29]: > 20 µM (inactive)
IC50 [30]: > 20 µM (inactive)
IC50 [31]: > 20 µM (inactive)
IC50 [32]: > 20 µM (inactive)
IC50 [35]: > 20 µM (inactive)
